According to patent publication US8304434B2, “Substituted aryl sulfone derivatives as calcium channel blockers” (Merck Sharp & Dohme Corp., priority 2007, dated 2012):

What follows are compounds tested against T1, Human Cav2.2 channels (Homo sapiens, UniProt Q00975) (assay: Fluorescent assay for Cav2.2 channels using potassium depolarization to initiate channel opening (Assay Example 1)). Conditions: Assay Example 1, HEK293 cells expressing human Cav2.2; pre-incubation potassium concentration not stated.
T1 construct: expressed in transfected cells; also expresses Kir2.3)
T1 sequence (Q00975 whole entry): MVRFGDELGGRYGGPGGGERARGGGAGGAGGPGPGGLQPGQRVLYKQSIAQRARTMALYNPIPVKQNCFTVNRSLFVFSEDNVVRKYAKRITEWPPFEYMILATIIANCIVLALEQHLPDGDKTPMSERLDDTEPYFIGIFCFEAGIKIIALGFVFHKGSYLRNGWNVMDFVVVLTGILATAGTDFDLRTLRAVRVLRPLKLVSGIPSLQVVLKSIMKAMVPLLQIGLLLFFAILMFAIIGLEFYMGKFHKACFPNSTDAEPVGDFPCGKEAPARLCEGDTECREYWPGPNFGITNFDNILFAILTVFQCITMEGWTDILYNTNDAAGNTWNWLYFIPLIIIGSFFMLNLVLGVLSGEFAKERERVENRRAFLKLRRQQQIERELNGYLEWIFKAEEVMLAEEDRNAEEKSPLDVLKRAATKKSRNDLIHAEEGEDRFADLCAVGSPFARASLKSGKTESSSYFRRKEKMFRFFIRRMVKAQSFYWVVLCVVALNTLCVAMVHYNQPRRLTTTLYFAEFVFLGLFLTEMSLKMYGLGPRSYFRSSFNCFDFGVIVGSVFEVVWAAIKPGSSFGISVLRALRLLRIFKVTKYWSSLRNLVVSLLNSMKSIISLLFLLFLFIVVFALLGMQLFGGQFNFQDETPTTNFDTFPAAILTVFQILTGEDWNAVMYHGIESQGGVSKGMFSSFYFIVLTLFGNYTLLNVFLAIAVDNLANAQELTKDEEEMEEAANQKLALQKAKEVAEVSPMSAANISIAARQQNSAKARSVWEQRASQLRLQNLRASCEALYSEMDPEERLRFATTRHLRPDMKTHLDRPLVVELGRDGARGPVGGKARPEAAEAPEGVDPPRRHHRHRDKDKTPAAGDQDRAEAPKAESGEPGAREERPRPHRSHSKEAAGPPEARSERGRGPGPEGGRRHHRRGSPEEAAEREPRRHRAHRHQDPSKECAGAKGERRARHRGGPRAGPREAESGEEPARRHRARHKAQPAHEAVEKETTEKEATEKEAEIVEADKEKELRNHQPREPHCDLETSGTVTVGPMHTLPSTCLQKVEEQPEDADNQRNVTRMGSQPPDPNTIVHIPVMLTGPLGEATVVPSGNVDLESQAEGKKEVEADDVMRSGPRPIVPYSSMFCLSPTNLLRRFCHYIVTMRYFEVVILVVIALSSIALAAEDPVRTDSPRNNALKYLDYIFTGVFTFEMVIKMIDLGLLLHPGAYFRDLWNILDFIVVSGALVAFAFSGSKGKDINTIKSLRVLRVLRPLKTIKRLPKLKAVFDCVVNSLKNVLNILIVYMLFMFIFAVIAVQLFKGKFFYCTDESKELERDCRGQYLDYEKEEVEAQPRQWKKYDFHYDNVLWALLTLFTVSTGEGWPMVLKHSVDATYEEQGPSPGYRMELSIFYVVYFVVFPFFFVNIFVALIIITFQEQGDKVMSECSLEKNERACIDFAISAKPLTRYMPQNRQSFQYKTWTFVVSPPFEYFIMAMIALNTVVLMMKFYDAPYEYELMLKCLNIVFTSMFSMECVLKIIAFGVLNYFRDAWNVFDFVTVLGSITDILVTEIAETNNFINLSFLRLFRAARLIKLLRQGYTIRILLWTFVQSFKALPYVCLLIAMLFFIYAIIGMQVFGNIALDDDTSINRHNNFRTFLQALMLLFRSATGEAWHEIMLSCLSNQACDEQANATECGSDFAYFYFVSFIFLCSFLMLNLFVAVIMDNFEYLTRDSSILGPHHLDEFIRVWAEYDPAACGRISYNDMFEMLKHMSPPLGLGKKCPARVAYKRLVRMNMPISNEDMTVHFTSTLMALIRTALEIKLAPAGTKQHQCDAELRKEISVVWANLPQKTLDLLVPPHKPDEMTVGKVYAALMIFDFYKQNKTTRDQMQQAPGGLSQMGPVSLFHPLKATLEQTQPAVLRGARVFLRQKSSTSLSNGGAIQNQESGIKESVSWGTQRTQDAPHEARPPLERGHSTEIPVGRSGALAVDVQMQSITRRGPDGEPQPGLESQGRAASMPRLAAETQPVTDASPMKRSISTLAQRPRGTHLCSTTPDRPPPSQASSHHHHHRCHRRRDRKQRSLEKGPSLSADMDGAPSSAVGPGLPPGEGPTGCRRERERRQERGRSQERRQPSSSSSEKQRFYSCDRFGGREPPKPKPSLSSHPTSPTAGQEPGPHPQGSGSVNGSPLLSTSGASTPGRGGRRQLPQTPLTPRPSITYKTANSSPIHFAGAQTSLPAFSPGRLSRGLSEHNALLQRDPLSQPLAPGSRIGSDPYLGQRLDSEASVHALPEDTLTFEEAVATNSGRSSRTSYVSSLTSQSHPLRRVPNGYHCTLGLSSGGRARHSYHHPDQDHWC
Type: cell-based
Source text: Human Cav2.2 channels were stably expressed in HEK293 cells along with alpha2-delta and beta subunits of voltage-gated calcium channels. An inwardly rectifying potassium channel (Kir2.3) was also expressed in these cells to allow more precise control of the cell membrane potential by extracellular potassium concentration. At low bath potassium concentration, the membrane potential is relatively negative, and is depolarized as the bath potassium concentration is raised. In this way, the bath potassium concentration can be used to regulate the voltage-dependent conformations of the channels. Compounds are incubated with cells in the presence of low (4 mM) potassium or elevated (12, 25 or 30 mM) potassium to determine the affinity for compound block of resting (closed) channels at 4 mM potassium or affinity for block of open and inactivated channels at 12, 25 or 30 mM potassium. After the incubation period, Cav2.2 channel opening is triggered by addition of higher concentration of potassium (70 mM final concentration) to further depolarize the cell. The degree of state-dependent block can be estimated from the inhibitory potency of compounds after incubation in different potassium concentrations.
Calcium influx through Cav2.2 channels is determined using a calcium-sensitive fluorescent dye in combination with a fluorescent plate reader. Fluorescent changes were measured with either a VIPR (Aurora Instruments) or FLIPR (Molecular Devices) plate reader.
• 1. Seed cells in Poly-D-Lysine Coated 96- or 384-well plate and keep in a 37° C.-10% CO2 incubator overnight • 2. Remove media^1, wash cells with 0.2 ml (96-well plate) or 0.05 ml (384-well plate) Dulbecco's Phosphate Buffered Saline (D-PBS) with calcium & magnesium (Invitrogen; 14040) • 3. Add 0.1 ml (96-well plate) or 0.05 ml (384-well plate) of 4 μM fluo-4 (Molecular Probes; F-14202) and 0.02% Pluronic acid (Molecular Probes; P-3000) prepared in D-PBS with calcium & magnesium (Invitrogen; 14040) supplemented with 10 mM Glucose & 10 mM Hepes/NaOH; pH 7.4 • 4. Incubate in the dark at 25° C. for 60-70 min • 5. Remove dye^2, wash cells with 0.1 ml (96-well plate) or 0.06 ml (384-well plate) of 4, 12, 25, or 30 mM Potassium Pre-polarization Buffer. (PPB) • 6. Add 0.1 ml (96-well plate) or 0.03 ml (384-well plate) of 4, 12, 25, 30 mM PPB, with or without test compound • 7. Incubate in the dark at 25° C. for 30 min • 8. Read cell plate on VIPR instrument, Excitation=480 nm, Emission=535 nm • 9. With VIPR continuously reading, add 0.1 ml (96-well plate) or 0.03 ml (384-well plate) of Depolarization Buffer, which is 2× the final assay concentration, to the cell plate.

IC50 [nM]	SMILES
510	CC(C)(C1CCN(C(=O)[C@H](O)Cc2ccccc2)CC1)S(=O)(=O)c1cccc(C(F)(F)F)c1
490	CC(C)(C)c1ccc(C(=O)N2CCC(C(C)(C)S(=O)(=O)c3cccc(C(F)(F)F)c3)CC2)cc1
830	CC(C)(C1CCN(C(=O)c2cccc(F)c2)CC1)S(=O)(=O)c1cccc(C(F)(F)F)c1
1400	CC(C)(C1CCN(C(=O)c2cccc3nccnc23)CC1)S(=O)(=O)c1cccc(C(F)(F)F)c1
150	CC(C)(C1CCN(C(=O)c2ccc(C(F)(F)F)cc2S(C)(=O)=O)CC1)S(=O)(=O)c1cccc(C(F)(F)F)c1
1170	CC(C)(C1CCN(C(=O)C2(N)CCC2)CC1)S(=O)(=O)c1cccc(C(F)(F)F)c1
1390	CC(C)(C1CCN(C(=O)c2c[nH]c(-c3ccccc3)n2)CC1)S(=O)(=O)c1cccc(C(F)(F)F)c1
790	CC(C)(C1CCN(C(=O)c2nc3ccc(F)cc3[nH]2)CC1)S(=O)(=O)c1cccc(C(F)(F)F)c1
490	CC(C)(C1CCN(C(=O)[C@@H](N)Cc2ccccc2)CC1)S(=O)(=O)c1cccc(C(F)(F)F)c1
360	CC(C)(C1CCN(C(=O)C[C@@H](NS(C)(=O)=O)c2ccccc2)CC1)S(=O)(=O)c1cccc(C(F)(F)F)c1
